Measurements: US20090018134A1, “Compounds - 945” (AstraZeneca AB, priority 2007, published 2009)

How the values were obtained:
mTOR [1] = biological target: T1, mTOR (Homo sapiens, UniProt P42345); assay: In Vitro mTOR Kinase Assay (Echo), Test (a)(ii); format: biochemical; settings: table of enzyme assay Test (a)(ii); read-out: Test (a)(ii) IC50
T1 construct: FLAG; made in house
How it was run: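 FLAG-tagged human mTOR truncation (residues 1362-2549) expressed in HEK293 cells and FLAG-purified. Compounds dispensed acoustically, reaction 2 h at room temperature, stopped with EDTA. Phosphorylation of biotinylated peptide detected by AlphaScreen with anti-p70 S6K (T389) antibody overnight; IC50 reported.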

mTOR [2] = biological target: T1, mTOR; assay: mTOR Kinase Assay (Echo); format: biochemical

T1 sequence (P42345 1362-2549): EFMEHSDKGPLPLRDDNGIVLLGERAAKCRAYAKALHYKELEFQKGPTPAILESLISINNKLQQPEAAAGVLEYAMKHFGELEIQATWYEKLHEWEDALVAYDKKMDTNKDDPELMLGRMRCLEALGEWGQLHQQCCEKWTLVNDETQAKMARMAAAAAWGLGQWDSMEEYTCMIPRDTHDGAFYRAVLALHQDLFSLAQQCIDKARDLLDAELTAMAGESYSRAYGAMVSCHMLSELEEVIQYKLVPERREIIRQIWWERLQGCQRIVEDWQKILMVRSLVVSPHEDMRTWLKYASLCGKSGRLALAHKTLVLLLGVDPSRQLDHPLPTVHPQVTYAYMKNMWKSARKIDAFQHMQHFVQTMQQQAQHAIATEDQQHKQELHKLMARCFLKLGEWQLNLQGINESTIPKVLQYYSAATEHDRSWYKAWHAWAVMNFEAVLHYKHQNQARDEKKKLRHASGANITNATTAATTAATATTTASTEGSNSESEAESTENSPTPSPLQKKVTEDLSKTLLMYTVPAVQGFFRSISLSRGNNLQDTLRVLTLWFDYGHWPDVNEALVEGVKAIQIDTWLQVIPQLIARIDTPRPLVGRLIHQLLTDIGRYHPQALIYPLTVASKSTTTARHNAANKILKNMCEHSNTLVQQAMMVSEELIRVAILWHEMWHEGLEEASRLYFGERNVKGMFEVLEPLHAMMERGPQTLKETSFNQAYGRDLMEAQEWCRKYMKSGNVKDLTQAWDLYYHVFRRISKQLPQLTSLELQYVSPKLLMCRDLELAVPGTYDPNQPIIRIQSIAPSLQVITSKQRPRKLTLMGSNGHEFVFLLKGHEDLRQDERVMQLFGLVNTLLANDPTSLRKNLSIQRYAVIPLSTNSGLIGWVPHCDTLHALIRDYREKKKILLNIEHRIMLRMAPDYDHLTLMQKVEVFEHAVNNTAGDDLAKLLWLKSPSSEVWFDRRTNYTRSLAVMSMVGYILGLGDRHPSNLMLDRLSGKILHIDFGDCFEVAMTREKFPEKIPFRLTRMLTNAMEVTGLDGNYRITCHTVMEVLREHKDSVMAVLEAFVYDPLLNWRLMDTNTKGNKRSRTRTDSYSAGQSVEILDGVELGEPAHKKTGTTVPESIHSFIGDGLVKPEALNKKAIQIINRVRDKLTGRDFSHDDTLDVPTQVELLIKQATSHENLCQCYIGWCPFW

In the case of `Cc1cnc(NC(=O)Nc2ccc(-c3nc(N4CCOC[C@@H]4C)cc(C4(S(C)(=O)=O)CC4)n3)cc2)cn1` [Example 36az, 3-[4-[4-[(3S)-3-methylmorpholin-4-yl]-6-(1-methylsulfonylcyclopropyl)pyri-midin-2-yl]phenyl]-1-(5-methylpyrazin-2-yl)urea], the IC50 (mTOR [1]) is reported as 1.05 nM and the IC50 (mTOR [2]) is reported as 1.49 nM.
Compound `C[C@H]1COCCN1c1cc(C2(S(C)(=O)=O)CC2)nc(-c2ccc(NC(=O)Nc3ncco3)cc2)n1` [Example 36ba, 1-[4-[4-[(3S)-3-methylmorpholin-4-yl]-6-(1-methylsulfonylcyclopropyl)pyri-midin-2-yl]phenyl]-3-(1,3-oxazol-2-yl)urea] has an IC50 (mTOR [1]) of 1.67 nM and an IC50 (mTOR [2]) of 3.12 nM.
With `C[C@H]1COCCN1c1cc(C2(S(C)(=O)=O)CC2)nc(-c2ccc(NC(=O)NCCCO)cc2)n1` [Example 36bb, 3-(3-hydroxypropyl)-1-[4-[4-[(3S)-3-methylmorpholin-4-yl]-6-(1-methylsulfonylcyclopropyl)pyri-midin-2-yl]phenyl]urea] the IC50 (mTOR [1]) was 5.13 nM and the IC50 (mTOR [2]) was 20.5 nM.
Work on `C[C@H]1COCCN1c1cc(C2(S(=O)(=O)c3ccccc3)CC2)nc(-c2ccc(NC(=O)NC3CC3)cc2)n1` [Example 36bc, 1-[4-[4-[1-(benzenesulfonyl)cyclopropyl]-6-[(3S)-3-methylmorpholin-4-yl]pyrimidin-2-yl]phenyl]-3-cyclopropylurea] yielded an IC50 (mTOR [1]) of 2.85 nM and an IC50 (mTOR [2]) of 2.05 nM.
`CCNC(=O)Nc1ccc(-c2nc(N3CCOC[C@@H]3C)cc(C3(S(=O)(=O)c4ccccc4)CC3)n2)cc1` [Example 36bg, 3-[4-[4-[1-(benzenesulfonyl)cyclopropyl]-6-[(3S)-3-methylmorpholin-4-yl]pyrimidin-2-yl]phenyl]-1-ethylurea] showed an IC50 (mTOR [1]) of 1.89 nM and an IC50 (mTOR [2]) of 0.922 nM.
`C[C@H]1COCCN1c1cc(C2(S(=O)(=O)c3ccccc3)CC2)nc(-c2ccc(NC(=O)NCCO)cc2)n1` [Example 36bh, 1-[4-[4-[1-(benzenesulfonyl)cyclopropyl]-6-[(3S)-3-methylmorpholin-4-yl]pyrimidin-2-yl]phenyl]-3-(2-hydroxyethyl)urea] was tested, and the IC50 (mTOR [1]) was 1.37 nM and the IC50 (mTOR [2]) was 1.21 nM.
`CNC(=O)Nc1ccc(-c2nc(N3CCOC[C@@H]3C)cc(C3(S(=O)(=O)c4ccccc4)CC3)n2)cc1` [Example 36bj, 1-[4-[4-[1-(benzenesulfonyl)cyclopropyl]-6-[(3S)-3-methylmorpholin-4-yl]pyrimidin-2-yl]phenyl]-3-methylurea] gave an IC50 (mTOR [1]) of 1.06 nM and an IC50 (mTOR [2]) of 0.621 nM.
For `C[C@H]1COCCN1c1cc(C2(S(=O)(=O)c3ccccc3)CC2)nc(-c2ccc(NC(=O)NCCCO)cc2)n1` [Example 36bl, 1-[4-[4-[1-(benzenesulfonyl)cyclopropyl]-6-[(3S)-3-methylmorpholin-4-yl]pyrimidin-2-yl]phenyl]-3-(3-hydroxypropyl)urea], the IC50 (mTOR [1]) was 3.33 nM and the IC50 (mTOR [2]) was 2.08 nM.
Work on `C[C@H]1COCCN1c1cc(C2(S(=O)(=O)c3ccccc3)CCC2)nc(-c2ccc(NC(=O)NC3CC3)cc2)n1` [Example 36bs, 1-[4-[4-[1-(benzenesulfonyl)cyclobutyl]-6-[(3S)-3-methylmorpholin-4-yl]pyrimidin-2-yl]phenyl]-3-cyclopropylurea] yielded an IC50 (mTOR [1]) of 2.64 nM and an IC50 (mTOR [2]) of 1.61 nM.
`C[C@H]1COCCN1c1cc(C2(S(=O)(=O)c3ccccc3)CCC2)nc(-c2ccc(NC(=O)NCCO)cc2)n1` [Example 36bt, 1-[4-[4-[1-(benzenesulfonyl)cyclobutyl]-6-[(3S)-3-methylmorpholin-4-yl]pyrimidin-2-yl]phenyl]-3-(2-hydroxyethyl)urea] showed an IC50 (mTOR [1]) of 1.88 nM and an IC50 (mTOR [2]) of 1.05 nM.
Compound `CNC(=S)Nc1ccc(-c2nc(N3CCOC[C@@H]3C)cc(C3(S(=O)(=O)c4ccccc4)CC3)n2)cc1` [Example 37ab, 1-[4-[4-[1-(benzenesulfonyl)cyclopropyl]-6-[(3S)-3-methylmorpholin-4-yl]pyrimidin-2-yl]phenyl]-3-methylthiourea] has an IC50 (mTOR [1]) of 4.88 nM and an IC50 (mTOR [2]) of 3 nM.
